Values of other authors in US20140100274A1, “METHODS OF ADMINISTERING COMPOSITIONS COMPRISING DOCOSAPENTAENOIC ACID” (Matinas BioPharma, Inc., priority 2012, published 2014).

Settings: in vivo

First-pass metabolism: occurs in all statins except pravastatin
Structure (SMILES): CC[C@H](C)C(=O)O[C@H]1C[C@H](O)C=C2C=C[C@H](C)[C@H](CC[C@@H](O)C[C@@H](O)CC(=O)O)[C@H]21 [pravastatin]
